In ChEMBL document CHEMBL1201862, “PubChem BioAssay data set” (2004):
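Where inhibition never reached the appropriate level, the endpoint shown equals the highest concentration tested. Otherwise, values were interpolated linearly from a five-concentration, 48-hour dose response in 96-well plates. GI50: concentration for 50% inhibition of growth.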 Calls of active or inactive are those of the source. No stated cut-off is given here; in the data, active = GI50 up to about 1.1 µM and inactive = higher.

Columns and labels:
Test in all cases: NCI tumour cell line growth inhibition, 48 h
[1] = system: K562
[2] = system: ACHN
[3] = system: HCT-116
[4] = system: U-251
[5] = system: OVCAR-8
[6] = system: DMS-114
[7] = system: CCRF-CEM
[8] = system: Hs-578T
[9] = system: HOP-18
[10] = system: LOX IMVI
[11] = system: HOP-62
[12] = system: BT-549
[13] = system: Malme-3M
[14] = system: OVCAR-4
[15] = system: A549
[16] = system: DLD-1
[17] = system: OVCAR-5
[18] = system: XF498
[19] = system: NCI-H23
[20] = system: IGROV-1
[21] = system: SR
[22] = system: SF-539
[23] = system: HL-60
[24] = system: SF-268
[25] = system: DU-145
[26] = system: MOLT-4
[27] = system: SK-OV-3
[28] = system: KM12
[29] = system: DMS-273
[30] = system: MDA-MB-231
[31] = system: HCT-15
[32] = system: NCI-H522
[33] = system: 786-0
[34] = system: M19-MEL
[35] = system: COLO 205
[36] = system: SNB-75
[37] = system: MDA-MB-435
[38] = system: NCI-H226
[39] = system: KM-20L2
[40] = system: SNB-19
[41] = system: M14
[42] = system: RPMI-8226
[43] = system: RXF 393
[44] = system: SNB-78
[45] = system: UACC-257
[46] = system: HOP-92
[47] = system: UO-31
[48] = system: NCI-H460
[49] = system: TK-10
[50] = system: HT-29
[51] = system: OVCAR-3
[52] = system: UACC-62
[53] = system: HCC 2998
[54] = system: SK-MEL-5
[55] = system: SK-MEL-2
[56] = system: PC-3
[57] = system: SK-MEL-28
[58] = system: SF-295
[59] = system: MCF7
[60] = system: T47D
[61] = system: EKVX
[62] = system: NCI/ADR-RES
[63] = system: SN12C
[64] = system: SW-620
[65] = system: CAKI-1
[66] = system: MDA-N

N[C@H](C(=O)O)[C@H]1ON=C(Cl)[C@@H]1O
GI50 [1]: 1.63 µM (inactive) | GI50 [2]: 10.7 µM (inactive) | GI50 [3]: 2.36 µM (inactive) | GI50 [4]: 3.3 µM (inactive) | GI50 [5]: 2.95 µM (inactive) | GI50 [6]: 6.61 µM (inactive) | GI50 [7]: 0.966 µM (active) | GI50 [8]: 8.65 µM (inactive) | GI50 [9]: > 360 µM (inactive) | GI50 [10]: 8.71 µM (inactive) | GI50 [11]: 2.13 µM (inactive) | GI50 [12]: 3.97 µM (inactive) | GI50 [13]: 24.1 µM (inactive) | GI50 [14]: 29.3 µM (inactive) | GI50 [15]: 1.56 µM (inactive) | GI50 [16]: 1.09 µM (active) | GI50 [17]: 5.6 µM (inactive) | GI50 [18]: 59 µM (inactive) | GI50 [19]: 3.52 µM (inactive) | GI50 [20]: 2.84 µM (inactive) | GI50 [21]: 1.73 µM (inactive) | GI50 [22]: 1.28 µM (inactive) | GI50 [23]: 3.46 µM (inactive) | GI50 [24]: 1.5 µM (inactive) | GI50 [25]: 27.4 µM (inactive) | GI50 [26]: 1.38 µM (inactive) | GI50 [27]: 14.3 µM (inactive) | GI50 [28]: 0.612 µM (active) | GI50 [29]: 1.16 µM (inactive) | GI50 [30]: 12.2 µM (inactive) | GI50 [31]: 1.21 µM | GI50 [32]: 0.942 µM (active) | GI50 [33]: 6.61 µM (inactive) | GI50 [34]: 1.87 µM (inactive) | GI50 [35]: 0.59 µM (active) | GI50 [36]: 26.2 µM (inactive) | GI50 [37]: 3.56 µM (inactive) | GI50 [38]: 45.1 µM (inactive) | GI50 [39]: 0.343 µM (active) | GI50 [40]: 5.58 µM (inactive) | GI50 [41]: 6.03 µM (inactive) | GI50 [42]: 2.43 µM (inactive) | GI50 [43]: 58.3 µM (inactive) | GI50 [44]: 28.1 µM (inactive) | GI50 [45]: 14.7 µM (inactive) | GI50 [46]: 27.4 µM (inactive) | GI50 [47]: 18.3 µM (inactive) | GI50 [48]: 2.76 µM (inactive) | GI50 [49]: > 28.5 µM (inactive) | GI50 [50]: 0.286 µM (active) | GI50 [51]: 18.5 µM (inactive) | GI50 [52]: 3.3 µM (inactive) | GI50 [53]: 1.15 µM (inactive) | GI50 [54]: 0.929 µM (active) | GI50 [55]: 56.1 µM (inactive) | GI50 [56]: 7.03 µM (inactive) | GI50 [57]: 3.24 µM (inactive) | GI50 [58]: 5.97 µM (inactive) | GI50 [59]: 2.6 µM (inactive) | GI50 [60]: 33.6 µM (inactive) | GI50 [61]: 5.11 µM (inactive) | GI50 [62]: 6.49 µM (inactive) | GI50 [63]: 4.63 µM (inactive) | GI50 [64]: 2.16 µM (inactive) | GI50 [65]: 1.77 µM (inactive) | GI50 [66]: 2.95 µM (inactive)
